pEC50: −log10 of the molar value. Like-named read-outs stand apart in the source and are kept apart here.
Assays:
rats [1] = experiment: Pharmacological characteristics at equivalent doses (2×ED50) in rats; conditions: 2×ED50, tail vein; for Adverse reactions: Red urine (incidence): DMSO solution (DMSO alone 10/10); for Onset time: time of LORR
How it was run: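 Adult male Sprague-Dawley rats (250-300 g, n=8) received each drug at twice its ED50 via tail vein (0.6 mL at 0.1 mL/s). Onset of anesthesia taken as time to LORR.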

rats [2] = format: in vivo, rat; conditions: rats of the MAP/HR figures, 2×ED50, tail vein
rats [3] = conditions: continuous tail vein infusion at 2×MIR, LORR maintained 1 hour, Table D4
Protocol: Pharmacological Effects of the Compounds on Continuous Infusion in Rats
Adult male Sprague-Dawley rats with body weight ranging from 250 to 300 gm were selected for continuous infusion test. […] Time to recovery of righting reflex from stopping infusion, and time to fully awake from stopping infusion were recorded.

rats [4] = experiment: Loss of righting reflexes (LORR) assay in rats, ED50 by up and down method; format: in vivo, rat; conditions: Rattus norvegicus, tail vein, class symbols
How it was run: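 Adult male Sprague-Dawley rats (250-300 g) dosed i.v. via tail vein at 0.1 mL/s. Anesthesia scored as loss of righting reflex lasting >30 s; ED50 derived by up-and-down method.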

rats [5] = tested on: rats
Protocol: Adult male Sprague-Dawley rats (250-300 g) were selected for the experiment. […] The anesthesia effects of the compounds were assessed in rats using a LORR assay and a period >30 s was considered as an indicator of general anesthesia. Then the up and down method was used to determine 50% effective dose (ED50). The drugs were administered through the tail vein of rats in a volume of 0.6 mL and at a rate of 0.1 mL/s.

rats [6] = format: in vivo, rat; conditions: rats of the MAP/HR figures, 2×ED50, tail vein; same value in min
How it was run: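 Rats implanted with telemetry (left ventricular and abdominal aortic catheters, ECG leads) at least one week before recording; compounds given via lateral tail-vein catheter. MAP and HR sampled every 15 s for 30 min before and after dosing to judge hemodynamic stability.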

[7] = tested on: secretion of cortisol, H295R cell line; experiment: cells; format: cell-based; conditions: for Cortisol as an indicator to determine the presence of inhibition: H295R cell line, 0.1-10000 nM, HPLC-MS/MS, Table D3; for pEC50: Homo sapiens, NCI-H295R, read-out: EC50 (Cortisol)
Protocol: (§1) The Effects of the Compounds on Adrenocortical Function In Vitro Test
(§2) Then secretion of the cortisol and corticosterone in the supernatant, was measured using HPLC-MS/MS method to determine whether the compounds of the present invention had adrenotoxic potential.

[8] = tested on: secretion of corticosterone, H295R cell line; experiment: cells; format: cell-based; conditions: for Corticosterone as an indicator to determine the presence of inhibition: H295R cell line, 0.1-10000 nM, HPLC-MS/MS, Table D3; for pEC50: Homo sapiens, NCI-H295R, read-out: EC50 (Corticosterone)
Protocol: as §1, §2

Compound | Righting reflex duration (rats [1]) | Adverse reactions: Red urine (incidence) (rats [1]) | Adverse reactions: Tremor (incidence) (rats [1]; animals affected/animals) | Onset time (rats [1]) | recovery time of the test animals' righting reflex (rats [2]) | Onset time (rats [3]) | Recovery time after stopping infusion (rats [3]) | Types and incidence of adverse reactions (rats [3]) | ED50 (rats [4]) | Approximate therapeutic index (rats [5]) | Minimal lethal dose (rats [5]) | recovery time of the test animals' righting reflex (rats [6]) | Cortisol as an indicator to determine the presence of inhibition [7] | pEC50 [7] | Corticosterone as an indicator to determine the presence of inhibition [8] | pEC50 [8] | Adverse reactions: Convulsions (incidence) (rats [1]) | Adverse reactions: Hindlimb rigidity (incidence) (rats [1]) | Adverse reactions: Tongue stretching (incidence) (rats [1])
C#CC(C)(C)OC(=O)c1cncn1[C@H](C)c1ccccc1 [Compound D15] | 2.25 ± 0.79 min | (7/8) | Tremor (2/8), Red urine | 0.21 ± 0.10 min | 225 s | 2 to 3 min | 10 to 11 min | Tremor (3/6) | 0.1 to 0.5 mg/kg | >10 | >4 mg/kg | 3.75 min | 0 | < 5.00 | 0 | < 5.00 | – | – | –
CC#CCOC(=O)c1cncn1[C@H](C)c1ccccc1 [Compound D18] | 1.88 ± 0.95 min | urine (8/8) | – | 0.22 ± 0.11 min | 317 s | 3 to 4 min | 11 to 13 min | Convulsions (1/6), Tremor (4/6) | 0.1 to 0.5 mg/kg | >12 | >3 mg/kg | 5.28 min | 0 | < 5.00 | 0 | < 5.00 | Convulsions (1/8), Red | – | –
C=C=CC1(OC(=O)c2cncn2[C@H](C)c2ccccc2)COC1 [Compound D21] | 1.93 ± 0.95 min | Red urine (8/8) | – | 0.15 ± 0.05 min | 360 s | 2 to 3 min | 8 to 9 min | Tremor (4/6), Myoclonus (1/6) | 0.01 to 0.1 mg/kg | >16 | >1 mg/kg | 6.0 min | 0 | < 6.00 | 0 | < 6.00 | – | Hindlimb rigidity (2/8), | –
CCC#CC(C)OC(=O)c1cncn1[C@H](C)c1ccccc1 (stereo partly shown) [Compound D36] | 2.63 ± 1.78 min | Red urine (8/8) | – | 0.31 ± 0.14 min | 143 s | 3 to 4 min | 12 to 17 min | – | 0.1 to 0.5 mg/kg | >15 | >4 mg/kg | 2.38 min | 0 | < 6.00 | 0 | < 6.00 | – | Hindlimb rigidity (2/8), | Tongue stretching (4/8),
